Data on ten compounds can be found in ChEMBL document CHEMBL1201862, “PubChem BioAssay data set” (2004).

Some test systems named below: A498; A549; HCC 2998; HCT-116; HOP-92; HT-29; Hs-578T; KM12; LOX IMVI; M14; MOLT-4; NCI-H460; NCI-H522; OVCAR-3; SF-295; SR; U-251; UACC-257; UO-31; CCRF-CEM.
Experiment in all cases: inhibition of tumour cell growth, NCI panel, 48 h

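Protocol summary: plate cells (96-well), add compound at 5 concentrations, incubate 48 h, interpolate endpoints linearly. Here, GI50 denotes the concentration required for 50% inhibition of growth.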 Activity calls are given as the source filed them. No stated cut-off is given here; in the data, active = GI50 up to about 1.1 µM and inactive = higher.

As to `O=C(/C=C/c1ccc(O)c(O)c1O)OCCc1ccccc1`, the GI50 in the assay on A498 was 74.6 µM (inactive); in the assay with A549, 26.2 µM (inactive); with HCC 2998 it was > 100 µM (inactive); in the assay on HCT-116 it was 13.5 µM (inactive); in the assay on HOP-92 it was 56.1 µM (inactive); with HT-29 it was 22.7 µM (inactive). For the same compound, the GI50 in the assay with Hs-578T was > 100 µM (inactive); with KM12 it was 28.9 µM (inactive); in the assay with LOX IMVI, 15.2 µM (inactive); with M14, 20 µM (inactive); with MOLT-4, 23.6 µM (inactive); in the assay with NCI-H460, 21.6 µM (inactive). The GI50 in the assay on NCI-H522 was 27.9 µM (inactive); with OVCAR-3, 21.6 µM (inactive); in the assay with SF-295 it was 19.2 µM (inactive); in the assay on SR it was 15.8 µM (inactive); in the assay on U-251, 26.1 µM (inactive); in the assay on UACC-257, > 100 µM (inactive). Further, the GI50 in the assay on UO-31 is 38.7 µM (inactive).
As for `CC(=O)C1=C(C)N(c2ccc(C)cc2)C2(O)C3=C(C(=O)c4ccccc4C3=O)C(O)=CC12Cl` (stereo not drawn), the GI50 with A498 was 3.15 µM (inactive); with A549, 17.5 µM (inactive); in the assay with HCC 2998, 12.7 µM (inactive); with HCT-116, 30.8 µM (inactive); in the assay on HOP-92, 43.8 µM (inactive); in the assay with HT-29 it was 22.3 µM (inactive). In addition, the GI50 with Hs-578T is 6.28 µM (inactive); in the assay on KM12 it was 5.37 µM (inactive); with LOX IMVI, 12.1 µM (inactive); in the assay with M14 it was 40.7 µM (inactive); with MOLT-4, 26.7 µM (inactive); in the assay on NCI-H460 it was 20.9 µM (inactive). Moreover, the GI50 in the assay on NCI-H522 is 6.14 µM (inactive); with OVCAR-3 it was 4.76 µM (inactive); in the assay on SF-295, 5.81 µM (inactive); in the assay with SR it was 7.06 µM (inactive); with U-251, 11.7 µM (inactive); in the assay with UACC-257, 9.38 µM (inactive). For the same compound, the GI50 with UO-31 is 11.1 µM (inactive).
As for `C=C(C)C(=O)OC1CC2=CC(CC3(C)OC3C3OC(=O)C(=C)C13)OC2=O` (stereo not drawn), the GI50 in the assay on A498 is 16.6 µM (inactive); with A549, 18.6 µM (inactive); with HCC 2998, 20 µM (inactive); in the assay on HCT-116, 5.01 µM (inactive); with HOP-92, 2.9 µM (inactive); with HT-29, 6.97 µM (inactive). Further, the GI50 with Hs-578T is 22.6 µM (inactive); in the assay on KM12 it was 15.6 µM (inactive); in the assay with LOX IMVI it was 4.14 µM (inactive); in the assay on M14 it was 4.41 µM (inactive); with MOLT-4, 1.84 µM (inactive); in the assay with NCI-H460, 17.9 µM (inactive). Also, the GI50 in the assay with NCI-H522 is 1.92 µM (inactive); in the assay with OVCAR-3, 10.7 µM (inactive); in the assay on SF-295 it was 18.6 µM (inactive); with SR, 2.51 µM (inactive); with U-251, 17.4 µM (inactive); in the assay on UACC-257, 5.41 µM (inactive). Moreover, the GI50 in the assay on UO-31 is 13.1 µM (inactive).
Take `C#CCOC(=O)C(N)CCCNC(=N)N` (stereo not drawn): the GI50 in the assay with A498, with A549, with CCRF-CEM, in the assay with HCC 2998, in the assay with HCT-116 and with HOP-92 was > 100 µM (inactive) throughout. The GI50 in the assay on HT-29, with Hs-578T, with KM12, in the assay on LOX IMVI, in the assay on M14 and with MOLT-4 was > 100 µM (inactive) each time. The GI50 in the assay with NCI-H460, in the assay with NCI-H522, with SR, in the assay with U-251, with UACC-257 and in the assay on UO-31 was > 100 µM (inactive) throughout.
Turning to `Oc1cc(-c2cccc(F)c2)nc2cc3c(cc12)OCO3`, the GI50 in the assay on A498 is 0.157 µM (active); with A549 it was 0.119 µM (active); with CCRF-CEM it was 0.0507 µM (active); in the assay with HCC 2998 it was 0.0705 µM (active); with HCT-116 it was 0.0405 µM (active); in the assay with HOP-92, 0.272 µM (active). Besides, the GI50 was 0.0226 µM (active) with Hs-578T; 0.0341 µM (active) in the assay on KM12; 0.0692 µM (active) with LOX IMVI; 0.0402 µM (active) in the assay on M14; 0.136 µM (active) with MOLT-4; 0.07 µM (active) with NCI-H460. The GI50 in the assay on NCI-H522 is 0.029 µM (active); with OVCAR-3 it was 0.0222 µM (active); in the assay with SF-295, 0.102 µM (active); in the assay on SR, 0.0241 µM (active); in the assay with U-251 it was 0.0757 µM (active); in the assay with UACC-257, 0.0236 µM (active). In the assay on UO-31, the GI50 was 0.124 µM (active).
As for `c1ccc(-c2csc3c2-n2cccc2C3N2CCCC2)cc1` (stereo not drawn), the GI50 is 76 µM (inactive) in the assay on A498; 26.4 µM (inactive) in the assay on A549; 70.1 µM (inactive) with CCRF-CEM; 26.1 µM (inactive) in the assay with HCC 2998; 43.8 µM (inactive) with HCT-116; 21 µM (inactive) with HOP-92. For the same compound, the GI50 in the assay on HT-29 is 28.2 µM (inactive); in the assay with Hs-578T it was 62.1 µM (inactive); in the assay with KM12 it was 30.7 µM (inactive); in the assay with LOX IMVI, 40.7 µM (inactive); with MOLT-4 it was 42.3 µM (inactive); in the assay with NCI-H460 it was 44.4 µM (inactive). In addition, the GI50 with NCI-H522 is 13.3 µM (inactive); in the assay on OVCAR-3 it was 6.9 µM (inactive); in the assay with SF-295 it was 23.8 µM (inactive); in the assay on SR it was 57.7 µM (inactive); in the assay on U-251 it was 11.1 µM (inactive); with UACC-257, 7.36 µM (inactive). Moreover, the GI50 in the assay on UO-31 was > 100 µM (inactive).
Regarding `COC1=CC(=O)c2c(cc(COP(=O)(N(C)CCBr)N(C)CCBr)n2C)C1=O`, the GI50 in the assay with A498 is 1.97 µM (inactive); in the assay on A549 it was 0.185 µM (active); in the assay on CCRF-CEM, 0.0356 µM (active); in the assay with HCC 2998 it was 0.494 µM (active); in the assay on HCT-116, 0.0542 µM (active); in the assay on HOP-92 it was 0.69 µM (active). In addition, the GI50 in the assay on HT-29 was 0.0413 µM (active); with Hs-578T, 1.77 µM (inactive); in the assay with KM12, 4.04 µM (inactive); with LOX IMVI, < 0.0238 µM (active); in the assay with M14, 0.614 µM (active); with MOLT-4, < 0.0173 µM (active). Also, the GI50 is 0.0582 µM (active) with NCI-H460; 0.281 µM (active) in the assay with NCI-H522; 2.16 µM (inactive) in the assay on OVCAR-3; < 0.0164 µM (active) with SF-295; < 0.01 µM (active) with SR; 0.0419 µM (active) with U-251. In addition, the GI50 in the assay on UACC-257 was 2.7 µM (inactive).
As to `COc1cc(OCc2ccccc2)c2c(CCC(=O)O)cc(=O)oc2c1.COc1cc(OCc2ccccc2)cc2oc(=O)cc(CCC(=O)O)c12`, the GI50 in the assay with A498 is 14.7 µM (inactive); in the assay on A549 it was 43.3 µM (inactive); in the assay on CCRF-CEM, 36.7 µM (inactive); with HCC 2998 it was 56.5 µM (inactive); with HCT-116 it was 54 µM (inactive); with HOP-92, 32 µM (inactive). Besides, the GI50 in the assay with HT-29 is 36.7 µM (inactive); in the assay on Hs-578T it was 50.6 µM (inactive); with KM12, 43.8 µM (inactive); in the assay on LOX IMVI, 20.9 µM (inactive); in the assay on M14 it was 92.5 µM (inactive); with MOLT-4, 28.1 µM (inactive). Moreover, the GI50 is 42.5 µM (inactive) in the assay with NCI-H522; 31 µM (inactive) in the assay on OVCAR-3; 38.9 µM (inactive) in the assay with SR; 55 µM (inactive) with U-251; > 100 µM (inactive) in the assay with UACC-257; 43.4 µM (inactive) in the assay on UO-31.
For `Nc1ncn(C/C=C/c2ccccc2)c2ncnc1-2`, the GI50 in the assay with A498 is 75.3 µM (inactive); with A549, > 100 µM (inactive); in the assay with HCC 2998 it was > 100 µM (inactive); in the assay on HCT-116, > 100 µM (inactive); with HOP-92, > 100 µM (inactive); with HT-29, 50.9 µM (inactive). Besides, the GI50 in the assay on Hs-578T was > 100 µM (inactive); with KM12, > 100 µM (inactive); in the assay with LOX IMVI it was > 100 µM (inactive); with M14 it was > 100 µM (inactive); in the assay with MOLT-4, 16.6 µM (inactive); in the assay on NCI-H460 it was > 100 µM (inactive). The GI50 in the assay with NCI-H522 was 78.2 µM (inactive); in the assay on OVCAR-3, > 100 µM (inactive); in the assay on SF-295, > 100 µM (inactive); with SR, 21.4 µM (inactive); in the assay on U-251, > 100 µM (inactive); with UACC-257, > 100 µM (inactive). The GI50 in the assay on UO-31 was > 100 µM (inactive).
As for `CC(C)/C(Cl)=N\OC(NC(=O)P(=O)(c1ccccc1)c1ccccc1)(C(F)(F)F)C(F)(F)F`, the GI50 in the assay with A498 was 14.9 µM (inactive); in the assay with A549, 5.15 µM (inactive); in the assay on CCRF-CEM, 5.01 µM (inactive); in the assay on HCC 2998 it was 14.8 µM (inactive); with HCT-116, 9.16 µM (inactive); in the assay on HOP-92, 2.46 µM (inactive). Also, the GI50 is 16.1 µM (inactive) with HT-29; 23.9 µM (inactive) with Hs-578T; 7.26 µM (inactive) in the assay with KM12; 11.3 µM (inactive) with LOX IMVI; 4.14 µM (inactive) in the assay on M14; 8.05 µM (inactive) in the assay on MOLT-4. The GI50 with NCI-H460 was 15.2 µM (inactive); in the assay with OVCAR-3, 4.97 µM (inactive); with SF-295 it was 11.6 µM (inactive); in the assay with SR it was 14.7 µM (inactive); in the assay with U-251, 2.88 µM (inactive); in the assay with UACC-257, 17.8 µM (inactive). Further, the GI50 in the assay on UO-31 is 7.05 µM (inactive).
